What all share (assay): Preemergent control of plant species
In one test the test system is cotton. The test is classed as in vivo, Gossypium spp. To be noted: Gossypium hirsutum, pre-emergence, 336 h; 0.25 lb/acre; read-out: percent preemergent control. Summed up:
(§1)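 Test compositions were applied evenly to the surface of freshly seeded soil beds and kept under greenhouse conditions for two weeks. Percent control reflects growth reduction compared with water-treated beds of the same species.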

Another test relates to rape. Type of test: in vivo, Brassica napus. The conditions noted are these: Brassica napus, pre-emergence, 336 h; 0.25 lb/acre; read-out: percent preemergent control. Put shortly:
as §1

A further test deals with soybean. Type of test: in vivo, Glycine max. To be noted: Glycine max, pre-emergence, 336 h; 0.25 lb/acre; read-out: percent preemergent control. Summed up: as §1
A further test concerns sugar beet. The test is classed as in vivo, Beta saccharifera. To be noted: Beta vulgaris, pre-emergence, 336 h; 0.25 lb/acre; read-out: percent preemergent control. Summed up:
as §1

Another test concerns jimsonweed. The test is classed as in vivo, Datura stramonium. The conditions noted are these: Datura stramonium, pre-emergence, 336 h; 0.25 lb/acre; read-out: percent preemergent control. Summed up: as §1
The test system of the next test is annual morning glory. Type of test: in vivo, Ipomoea spp. To be noted: Ipomoea, pre-emergence, 336 h; 0.25 lb/acre; read-out: percent preemergent control. Summed up: as §1
The next test has as its system velvetleaf. Type of test: in vivo, Abutilon theophrasti. To be noted: Abutilon theophrasti, pre-emergence, 336 h; 0.25 lb/acre; read-out: percent preemergent control. Put shortly:
as §1

A further test deals with corn. Type of test: in vivo, Zea mays. To be noted: Zea mays, pre-emergence, 336 h; 0.25 lb/acre; read-out: percent preemergent control. Put shortly:
as §1

The test system of a further test is rice. The test is classed as in vivo, Oryza sativa. The conditions noted are these: Oryza sativa, pre-emergence, 336 h; 0.25 lb/acre; read-out: percent preemergent control. Put shortly: as §1
The next test concerns sorghum. The test is classed as in vivo, Sorghum vulgare. The conditions noted are these: Sorghum, pre-emergence, 336 h; 0.25 lb/acre; read-out: percent preemergent control. Summed up: as §1
For another test, the system named is wheat. Type of test: in vivo, Triticum aestivum. To be noted: Triticum aestivum, pre-emergence, 336 h; 0.25 lb/acre; read-out: percent preemergent control. Summed up: as §1
In a further test the test system is barnyardgrass. Type of test: in vivo, Echinochloa crusgalli. To be noted: Echinochloa crus-galli, pre-emergence, 336 h; 0.25 lb/acre; read-out: percent preemergent control. Put shortly:
as §1

Another test has as its system johnson grass. The test is classed as in vivo, Sorghum halepense. To be noted: Sorghum halepense, pre-emergence, 336 h; 0.25 lb/acre; read-out: percent preemergent control. Put shortly:
as §1

The next test has as its system wild oats. Type of test: in vivo. The conditions noted are these: Avena fatua, pre-emergence, 336 h; 0.25 lb/acre; read-out: percent preemergent control. How it is done:
The seeds of various species of plants were planted in beds of good agricultural soil in a greenhouse. A number of compositions of the present invention, generally in the nature of an aqueous emulsion, were applied at rates listed in the table so as to deposit a predetermined amount of active ingredients uniformly throughout the surface of the bed. Another seed bed was treated only with water to serve as a control. After treatment the seed beds were maintained for two weeks under greenhouse conditions conducive for good plant growth and watered as necessary. Control refers to the reduction in growth compared to the observed results of the same untreated species.

The next test relates to yellow foxtail. The test is classed as in vivo, Setaria lutescens. To be noted: Setaria, pre-emergence, 336 h; 0.25 lb/acre; read-out: percent preemergent control. Summed up: as §1
A further test deals with yellow nutsedge. Type of test: in vivo, Cyperus esculentus. To be noted: Cyperus, pre-emergence, 336 h; 0.25 lb/acre; read-out: percent preemergent control. Summed up: as §1

`Cc1ccn2nc(S(=O)(=O)N(C(=O)C=Cc3ccccc3)c3c(F)cccc3F)nc2n1` [Compound 293]: the plant injury at 280.212 g/ha with cotton was 100%; with rape, 100%; with soybean, 10%; in the test on sugar beet, 100%; in the test on corn, 60%; with rice it was 90%. Further, the plant injury at 280.212 g/ha in the test with sorghum turned out to be 100%; with wheat it was 60%. The pest or weed control at 280.212 g/ha was determined as 100% in the test on jimsonweed; 70% in the test on annual morning glory; 100% in the test on velvetleaf; 100% in the test on barnyardgrass; 95% with johnson grass; 95% in the test on wild oats. Moreover, the pest or weed control at 280.212 g/ha with yellow foxtail and in the test on yellow nutsedge was 100% in each case.

As to `Cc1ccn2nc(S(=O)(=O)N(C(=O)CCCl)c3c(F)cccc3F)nc2n1` [Compound 282], the plant injury at 280.212 g/ha with cotton turned out to be 100%; with rape, 100%; with soybean, 50%; in the test with sugar beet, 100%; in the test with corn, 95%; in the test with rice, 100%. Also, the plant injury at 280.212 g/ha came to 100% with sorghum and 70% in the test with wheat. The pest or weed control at 280.212 g/ha is 100% in the test with jimsonweed; 80% in the test on annual morning glory; 100% with velvetleaf; 70% with barnyardgrass; 100% in the test on johnson grass; 100% with wild oats. The pest or weed control at 280.212 g/ha in the test with yellow foxtail and with yellow nutsedge was 100% each time.

Regarding `CCOCCOC(=O)c1cccc(C)c1NS(=O)(=O)c1nc2nc(C)cc(C)n2n1` [Compound 72], the plant injury at 280.212 g/ha in the test with cotton came to 40%; in the test on rape it was 100%; with soybean, 90%; in the test with sugar beet it was 90%; in the test on corn, 90%; with rice it was 70%. In addition, the plant injury at 280.212 g/ha is 80% in the test on sorghum and 90% in the test on wheat. In addition, the pest or weed control at 280.212 g/ha in the test on jimsonweed came out at 100%; in the test on annual morning glory, 10%; in the test on velvetleaf it was 60%; in the test with barnyardgrass, 30%; with johnson grass, 50%; in the test on wild oats, 90%. In addition, the pest or weed control at 280.212 g/ha stood at 50% in the test with yellow foxtail and 100% in the test with yellow nutsedge.

For the compound `COc1nc2nc(S(=O)(=O)Nc3c(F)cccc3F)nn2cc1C` [Compound 214], the plant injury at 280.212 g/ha in the test on cotton, with rape, with soybean, with sugar beet, in the test with corn and in the test on rice was 100% throughout. Besides, the plant injury at 280.212 g/ha with sorghum and with wheat was 100% throughout. Moreover, the pest or weed control at 280.212 g/ha in the test on jimsonweed, in the test on annual morning glory, in the test on velvetleaf, in the test on barnyardgrass, in the test with johnson grass and in the test with wild oats was 100% in each case. Further, the pest or weed control at 280.212 g/ha in the test with yellow foxtail and in the test on yellow nutsedge was 100% each time.

As for `Cc1cnc2nc(S(=O)(=O)Nc3c(Cl)ccc(C)c3Cl)nn2c1` [Compound 194], the plant injury at 280.212 g/ha with cotton came out at 90%; in the test with rape, 100%; with soybean, 70%; in the test on sugar beet it was 100%; in the test with corn it was 0%; in the test on rice it was 0%. In addition, the figures for the plant injury at 280.212 g/ha with sorghum and in the test on wheat were 30% and 0%, respectively. The pest or weed control at 280.212 g/ha is 95% in the test with jimsonweed; 90% in the test on annual morning glory; 90% in the test on velvetleaf; 0% in the test with barnyardgrass; 0% in the test on johnson grass; 0% in the test on wild oats. Besides, the pest or weed control at 280.212 g/ha was 0% in the test on yellow foxtail and 95% with yellow nutsedge.

Take `Cc1ccn2nc(S(=O)(=O)N(C(=O)CC(C)C)c3c(F)cccc3F)nc2n1` [Compound 284]: the plant injury at 280.212 g/ha in the test on cotton worked out at 100%; in the test on rape it was 100%; in the test with soybean, 20%; with sugar beet, 100%; with corn, 85%; in the test on rice, 100%. The plant injury at 280.212 g/ha in the test with sorghum and in the test with wheat was 100% throughout. For the same compound, the pest or weed control at 280.212 g/ha in the test on jimsonweed was determined as 100%; in the test on annual morning glory, 80%; in the test with velvetleaf, 100%; in the test on barnyardgrass, 100%; in the test on johnson grass it was 100%; in the test on wild oats, 90%. In addition, the pest or weed control at 280.212 g/ha with yellow foxtail and in the test on yellow nutsedge was 100% in each case.

As for `Cc1ccn2nc(S(=O)(=O)Nc3c(C)cccc3C#N)nc2n1` [Compound 165], the plant injury at 280.212 g/ha with cotton turned out to be 90%; in the test with rape it was 75%; in the test with soybean, 10%; with sugar beet, 90%; in the test on corn it was 0%; with rice it was 0%. The plant injury at 280.212 g/ha was 60% with sorghum and 0% in the test with wheat. Moreover, the pest or weed control at 280.212 g/ha with jimsonweed was 90%; in the test with annual morning glory it was 60%; in the test on velvetleaf it was 30%; in the test on barnyardgrass it was 60%; with johnson grass, 0%; in the test on wild oats it was 0%. The pest or weed control at 280.212 g/ha in the test with yellow foxtail and with yellow nutsedge was 90% throughout.

Regarding `CC=CC(=O)N(c1c(F)cccc1F)S(=O)(=O)c1nc2nc(C)ccn2n1` [Compound 288], the plant injury at 280.212 g/ha in the test with cotton came out at 100%; in the test on rape it was 100%; in the test with soybean, 40%; in the test on sugar beet, 100%; in the test with corn, 80%; in the test with rice it was 100%. Moreover, the plant injury at 280.212 g/ha was found to be 100% in the test on sorghum and 60% with wheat. Also, the pest or weed control at 280.212 g/ha in the test on jimsonweed was determined as 100%; in the test with annual morning glory, 100%; in the test with velvetleaf, 100%; in the test on barnyardgrass, 100%; in the test on johnson grass, 100%; in the test with wild oats it was 90%. For the same compound, the pest or weed control at 280.212 g/ha with yellow foxtail and with yellow nutsedge was 100% each time.
